Square brackets hold non-standard residues; d marks the D form. Peptide text beside a SMILES is read from it.
Experiments:
human whole blood = test: Cytokine release in human whole blood stimulated 4 hours with LPS or PMA+ionomycin; type: cell-based; conditions: human whole blood, 1, 3, 10 μM
Description: FIG. 18 JNK inhibition and IL-6 release in human whole blood. The JNK inhibitor with SEQ ID NO: 172 was added at three different concentrations, namely 1, 3 and 10 μM 1 h before whole blood stimulation with LPS (0.02 ng/mL) for 4 hours.
FIG. 19 JNK inhibition and IL-2 release in human whole blood. The JNK inhibitor with SEQ ID NO: 172 was added at three different concentrations, namely 1, 3 and 10 μM 1 h before whole blood stimulation with PMA+ionomycin (25/700 ng/mL, 50/800 ng/mL and 50/1000 ng/mL) for 4 hours.
(§1) Whole blood is collected from anesthetized rat or human healthy volunteers using a venipuncture connected to a pre-labeled vacuum tube containing sodium citrate. Tubes are gently mixed by inversion 7-8 times; and are then kept at RT until stimulation. JNK inhibitor of SEQ ID NO: 172 is prepared 6 times concentrated in PBS, and 30 μl/well of mix is added into 96-well plate. Whole blood is diluted by 1:2 in PBS and 120 μl of diluted blood is added in each well where either PBS alone or JNK inhibitor of SEQ ID NO: 172 has been previously added. Whole blood is incubated at 37° C.; 85 rpm (Stuart Orbital incubator SI500) for 60 min. Activators (LPS) are the prepared, 30 μl/well of LPS, 6 times concentrated. After 60 min incubation, LPS is added to the blood, blood is mixed by pipetting up and down, and then kept for 4 h under agitation (85 rpm), at 37° C. After the 4 h incubation, the plates are centrifuged at about 770 g, 4° C. for 15 min in a pre-cooled centrifuge. Supernatants are finally collected and kept at −20° C. until cytokine measurement. Cytokine (IL-6, IL-2, IFNγ and TNFα) were then measured using standard Elisa kits (e.g. from R&D Systems: DuoSet Elisas; or from BD Biosciences: BD Opteia Set Elisa). Results are expressed as pg/ml of supernatant of the measured cytokine.
A similar experiment was conducted with PMA+ionomycin instead of LPS as activator/stimulant.

[1] = system: Primary Rat Whole Blood Cells; test: Cytokine release in rat whole blood stimulated with LPS or PMA+ionomycin; type: cell-based; conditions: 10 μM inhibitor, PMA+ionomycin 25/500, 50/750, 50/1000 ng/mL, 4 h
Description: Given are the results for the control, 1 μM of SEQ ID NO: 172, 3 μM of SEQ ID NO: 172, and 10 μM of SEQ ID NO: 172 at different levels of LPS (ng/ml).
FIG. 17 Dose dependent inhibition of IL-2 release in rat whole blood stimulated with PMA+ionomycin. JNK inhibitor with SEQ ID NO: 172 was added at three different concentrations, namely 1, 3 and 10 μM 1 h before stimulation with PMA+ionomycin. Three doses of activators were added (25/500 ng/mL, 50/750 ng/mL and 50/1000 ng/mL) for 4 h. IL-2 release was assessed in supernatant.
as §1, with “Activators (LPS) are the prepared, 30 μl/well of LPS, 6 times concentrated. After 60 min incubation, LPS is added to the blood, blood is mixed by pipetting up and down, and then kept for 4 h under agitation (85 rpm), at 37° C. After the 4 h incubation, the plates are centrifuged at about 770 g, 4° C. for 15 min in a pre-cooled centrifuge. Supernatants are finally collected and kept at −20° C. until cytokine measurement.” left out, “cytokine. […]” for “cytokine.”

[2] = dissolved in 0.9% NaCl, up to 0.4 mg/ml
From the text: To receive three different doses (cf. above, groups table) it has been serially diluted (1:10 fold).

[3] = system: mouse model of scopolamine-induced dry eye; test: Scopolamine-induced dry eye in mice (TBUT, PRTT, histopathology); type: in vivo; conditions: for TBUT mean nadir: TID topical ocular
From the text: The objective of this study was to assess the effects of two different compounds, the all-D-retro-inverso JNK-inhibitor (poly-)peptide of SEQ ID NO: 197 and the JNK inhibitor (poly-)peptide of SEQ ID NO: 172, at three dose levels in a mouse model of scopolamine-induced dry eye.
The study consisted of a total of 9 groups of female C57BL/6 mice, comprising 8 groups of 12 mice each and an additional group of 4 mice. Bilateral short-term dry eye was induced by a combination of scopolamine hydrobromide (Sigma-Aldrich Corp., St. Louis, Mo.) injection (subcutaneous (SC), four times daily, 0.5 mg/dose, Days 0-21) and by exposing mice to the drying environment of constant air draft. […] Mice of Group 9 were maintained as un-induced, (no dry eye) untreated controls.
During the in-life (treatment) period, clinical observations were recorded once daily; slit-lamp examination (SLE) with corneal fluorescein staining, tear break-up time test (TBUT), and phenol red thread test (PRTT) were performed three times per week. Necropsies were performed on Day 22; eyes, eye lids, conjunctivae, and lacrimal glands were collected from both eyes of each animal. Tissues from the right eyes (oculus dexter, OD) were fixed and then evaluated microscopically. Tissues from the left eyes (oculus sinister; OS) were flash-frozen in liquid nitrogen and stored frozen at −80° C. for possible subsequent analyses.
The TBUT test was conducted three times weekly by measuring the time elapsed in seconds between a complete blink after application of fluorescein to the cornea and the appearance of the first random dry spot in the tear film. […] At least ninety seconds later, corneal epithelial damage was graded using a slit-lamp with a cobalt blue filter after another drop of 0.1% fluorescein was reapplied to the cornea; the cornea then was scored per the Draize ocular scale.
Tear production was measured three times a week in both eyes using PRTT test strips (Zone-Quick; Menicon, Nagoya, Japan). Prior to the first treatment of the day, a thread was applied to the lateral canthus of the conjunctival fornix of each eye for 30 seconds under slit-lamp biomicroscopy. Tear migration up the tread (i.e., the length of the wetted cotton thread) was measured using a millimeter scale.
At necropsy on Day 22, both eyes from each animal, including the globes, lacrimal glands, eyelids, and conjunctivae, were excised. The right eye and associated tissues were fixed by overnight submersion in modified Davidson's solution followed by transfer to 10% neutral buffered formalin (NBF). The fixed tissues of the right eye were dehydrated, embedded in paraffin, sectioned at 3 to 5-μm thicknesses, and slide-mounted tissues were stained with hematoxylin and eosin (H & E). Stained slides were evaluated via light microscopy. Detailed and complete histopathologic assessment was conducted on all parts of the eye, with at least two section levels being examined histopathologically for each right eye. Special attention was paid to the cornea, epithelia (including goblet cells) of the conjunctiva and cornea, as well as the lacrimal gland. These tissues were scored for injury based upon a 0-4 scale, with 0 being normal, 1 being minimal, 2 being mild, 3 being moderate, and 4 being severe. For each cornea, scores were based on corneal epithelium thickness, and corneal inflammation. Conjunctivae were scored for erosion and inflammation as well as presence or absence of goblet cells.

[4] = system: established type II collagen arthritis in rats
[5] = SEQ ID NO: 172 0.01-5 mg/kg IV QD

## CC(C)C[C@H](NC(=O)[C@H](CC(N)=O)NC(=O)[C@H](CC(C)C)NC(=O)[C@@H](NC(=O)[C@@H](C)NC(=O)[C@@H]1CCCN1C(=O)[C@H](CCCNC(=N)N)NC(=O)[C@@H](CCCCN)NC(=O)[C@@H]1CCCN1C(=O)[C@H](CCCNC(=N)N)NC(=O)[C@@H](CCCNC(=N)N)NC(=O)[C@H](CCCNC(=N)N)NC(=O)[C@H](CCCNC(=N)N)NC(=O)[C@H](CCC(N)=O)NC(=O)[C@@H](CCCNC(=N)N)NC(=O)[C@H](CCCNC(=N)N)NC(=O)[C@H](CCCCN)NC(=O)[C@H](CCCCN)NC(=O)[C@H](N)CCCNC(=N)N)[C@@H](C)O)C(=O)N[C@H](Cc1ccccc1)C(N)=O [SEQ ID NO: 172, rKKRrQRRrRPkRPaTLNLf] (H-[dR]KKR[dR]QRR[dR]RP[dK]RP[dA]TLNL[dF]-NH2)
Human whole blood
  PMA+ionomycin-induced IFN-γ release: reduce the PMA+ionomycin-induced IFN-γ release in a dose-dependent manner
  PMA+ionomycin-induced IL-2 release: reduce the PMA+ionomycin-induced IL-2 release in a dose-dependent manner
  PMA+ionomycin-induced TNF-α release: reduce the PMA+ionomycin-induced TNF-α release in a dose-dependent manner
Human whole blood; LPS 0.02 ng/mL
  LPS-induced IL-6 release: reduce the LPS-induced IL-6 release in a dose-dependent manner
[1]
  PMA-iono-induced IL-2 release: efficiently reduce
[2]
  solubility: readily soluble
[3]; Day 7, high-dose 0.6% (Group 7)
  TBUT mean nadir: 6.7 ± 0.3 s
[3]; Day 7, low-dose 0.05% (Group 5)
  TBUT mean nadir: 6.6 ± 0.4 s
[3]; Day 7, mid-dose 0.2% (Group 6)
  TBUT mean nadir: 6.7 ± 0.4 s
[3]; Day 9, high-dose 0.6% (Group 7)
  TBUT mean peak: 9.9 ± 0.8 s
[3]; Day 9, low-dose 0.05% (Group 5)
  TBUT mean peak: 8.0 ± 0.4 s
[3]; Day 9, mid-dose 0.2% (Group 6)
  TBUT mean peak: 10.0 ± 0.7 s
[3]; Day 21, mid and high-dose (Groups 6 and 7)
  PRTT, aqueous tear production compared with cyclosporine: therapeutic effects similar to cyclosporine
[3]; low, medium and high-dose, Groups 2, 3 and 4
  TBUT means compared with vehicle group: above the vehicle group
[3]; low, mid or high-dose SEQ ID NO: 172
  aqueous tear production (PRTT) compared with vehicle: significantly more aqueous tears compared to vehicle-treated animals
[3]; mid and high-dose SEQ ID NO: 172 (Groups 6, 7), high-dose SEQ ID NO: 197 (Group 4)
  histological cornea scores compared with cyclosporine group: not significantly different than the cyclosporine group scores
[4]; 5 mg/kg IV QD, p<0.05 days 4-12
  daily ankle diameter measurements vs disease controls: significantly (p<0.05 by 2-way RM ANOVA) reduced toward normal
[4]; IV QD days 1-14
  adverse effect on organ weights: no adverse effect on organ weights
[4]; [5]
  relative spleen weights: not significantly affected
  relative thymus weights: not significantly affected
